Reference: ChEMBL document CHEMBL1201862, “PubChem BioAssay data set” (2004)
Active and inactive are the calls of the source.

Experiments:
[1] = target: Lysosomal acid glucosylceramidase (Homo sapiens, UniProt P04062); test: Dose response cell-based high throughput screening assay to identify enhancers of beta-glucosidase activity. [Related pubchem assays: 784 ]; type: functional
Cytochrome P450 1A2 = target: T1, Cytochrome P450 1A2 (Homo sapiens, UniProt P05177);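 further: PubChem cytochrome P450 panel assay, CYP1A2 panel member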
T1 sequence (P05177 whole entry): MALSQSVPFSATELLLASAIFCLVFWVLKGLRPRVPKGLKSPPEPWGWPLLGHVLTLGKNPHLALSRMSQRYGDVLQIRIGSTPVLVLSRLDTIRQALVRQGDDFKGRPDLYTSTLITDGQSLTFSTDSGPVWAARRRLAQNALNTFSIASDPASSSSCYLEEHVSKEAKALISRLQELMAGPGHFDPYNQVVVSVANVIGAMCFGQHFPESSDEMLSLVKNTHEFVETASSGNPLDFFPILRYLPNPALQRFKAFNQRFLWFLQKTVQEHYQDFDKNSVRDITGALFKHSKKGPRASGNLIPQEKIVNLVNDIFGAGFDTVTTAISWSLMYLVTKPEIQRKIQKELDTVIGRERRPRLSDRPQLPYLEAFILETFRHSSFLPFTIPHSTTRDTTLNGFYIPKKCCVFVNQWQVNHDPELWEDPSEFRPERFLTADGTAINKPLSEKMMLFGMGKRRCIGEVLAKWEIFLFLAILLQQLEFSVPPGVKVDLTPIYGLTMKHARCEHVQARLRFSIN

Aminopeptidase N = target: T2, Aminopeptidase N (Plasmodium falciparum FcB1/Columbia, UniProt O96935); test: P. falciparum M1AAP inhibitors, biochemical, fluorogenic H-Leu-NHMec substrate, 1536-well (AID 1445); set-up: species or system Plasmodium falciparum 3D7, 3D7
T2 sequence (O96935 whole entry): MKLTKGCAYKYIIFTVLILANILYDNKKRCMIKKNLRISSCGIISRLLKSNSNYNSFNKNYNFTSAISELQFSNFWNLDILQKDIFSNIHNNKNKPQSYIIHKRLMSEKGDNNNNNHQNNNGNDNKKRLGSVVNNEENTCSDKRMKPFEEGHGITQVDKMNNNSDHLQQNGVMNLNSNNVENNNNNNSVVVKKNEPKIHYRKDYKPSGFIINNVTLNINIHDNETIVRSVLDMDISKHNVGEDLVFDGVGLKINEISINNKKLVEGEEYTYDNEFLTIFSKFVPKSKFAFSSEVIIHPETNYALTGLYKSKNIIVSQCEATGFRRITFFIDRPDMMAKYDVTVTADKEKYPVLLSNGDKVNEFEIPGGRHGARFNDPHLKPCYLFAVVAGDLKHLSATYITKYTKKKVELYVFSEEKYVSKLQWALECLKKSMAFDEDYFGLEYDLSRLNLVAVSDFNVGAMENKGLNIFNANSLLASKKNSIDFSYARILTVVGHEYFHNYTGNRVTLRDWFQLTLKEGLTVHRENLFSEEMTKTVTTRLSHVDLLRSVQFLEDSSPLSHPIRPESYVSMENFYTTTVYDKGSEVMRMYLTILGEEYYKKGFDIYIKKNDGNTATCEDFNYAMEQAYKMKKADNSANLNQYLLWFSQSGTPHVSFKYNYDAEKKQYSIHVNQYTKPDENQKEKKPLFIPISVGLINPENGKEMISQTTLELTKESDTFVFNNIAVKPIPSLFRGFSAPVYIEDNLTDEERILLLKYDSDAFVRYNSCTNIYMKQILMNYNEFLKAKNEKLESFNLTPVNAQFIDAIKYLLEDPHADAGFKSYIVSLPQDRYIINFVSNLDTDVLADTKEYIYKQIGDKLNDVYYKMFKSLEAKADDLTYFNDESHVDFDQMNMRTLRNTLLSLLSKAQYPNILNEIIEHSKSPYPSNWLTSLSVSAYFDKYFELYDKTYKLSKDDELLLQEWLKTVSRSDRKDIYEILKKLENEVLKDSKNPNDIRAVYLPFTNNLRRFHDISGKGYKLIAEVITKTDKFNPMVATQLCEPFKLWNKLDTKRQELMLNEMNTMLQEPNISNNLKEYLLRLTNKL

[2] = target: T3, DNA repair and recombination protein RAD54-like (Homo sapiens, UniProt Q92698); test: inhibitors of human RAD54 branch migration, confirmation, biochemical, fluorescence, cherry-picked samples, dose series (AID 651657); type: functional
T3 sequence (Q92698 whole entry): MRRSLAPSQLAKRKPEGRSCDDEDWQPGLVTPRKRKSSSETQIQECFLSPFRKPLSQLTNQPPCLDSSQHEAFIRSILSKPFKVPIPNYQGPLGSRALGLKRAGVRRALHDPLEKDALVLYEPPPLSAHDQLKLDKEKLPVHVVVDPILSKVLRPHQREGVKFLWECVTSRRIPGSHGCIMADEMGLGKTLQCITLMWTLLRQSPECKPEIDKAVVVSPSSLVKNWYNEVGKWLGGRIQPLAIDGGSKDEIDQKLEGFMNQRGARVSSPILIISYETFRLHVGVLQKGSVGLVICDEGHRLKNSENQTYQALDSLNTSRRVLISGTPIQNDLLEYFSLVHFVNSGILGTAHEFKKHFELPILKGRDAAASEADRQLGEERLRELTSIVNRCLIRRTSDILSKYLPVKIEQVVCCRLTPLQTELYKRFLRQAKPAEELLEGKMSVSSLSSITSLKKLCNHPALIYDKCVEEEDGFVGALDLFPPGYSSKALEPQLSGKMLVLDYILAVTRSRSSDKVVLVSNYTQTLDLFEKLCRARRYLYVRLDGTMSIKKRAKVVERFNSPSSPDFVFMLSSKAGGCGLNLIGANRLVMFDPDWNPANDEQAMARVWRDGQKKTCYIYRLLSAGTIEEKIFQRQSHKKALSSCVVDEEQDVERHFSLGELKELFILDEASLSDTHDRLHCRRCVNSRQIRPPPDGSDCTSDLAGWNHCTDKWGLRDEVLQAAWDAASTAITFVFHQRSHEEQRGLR

Cytochrome P450 2D6 = Cytochrome P450 2D6 (Homo sapiens, UniProt P10635);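 further: CYP2D6 member of a cytochrome P450 panel assay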
[3] = target: T4, RNA-binding protein pos-1 (Caenorhabditis elegans, UniProt G5EF15); test: inhibitors of POS-1/mex-3 RNA binding, dose response, biochemical, fluorescence polarization (AID 1964);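 further: purified POS-1 fused to maltose binding protein made in E. coli; potency of compounds blocking POS-1 binding to fluorescent RNA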
T4 sequence (G5EF15 whole entry): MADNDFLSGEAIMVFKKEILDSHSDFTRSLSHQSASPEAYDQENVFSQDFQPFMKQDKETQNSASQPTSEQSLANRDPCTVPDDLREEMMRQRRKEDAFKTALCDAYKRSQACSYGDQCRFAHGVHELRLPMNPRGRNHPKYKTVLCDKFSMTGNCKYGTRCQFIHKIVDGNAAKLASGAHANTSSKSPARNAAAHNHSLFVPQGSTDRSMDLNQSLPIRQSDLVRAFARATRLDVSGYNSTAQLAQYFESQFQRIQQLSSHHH

[4] = target: Female germline-specific tumor suppressor gld-1 (Caenorhabditis elegans, UniProt Q17339); test: inhibitors of GLD-1 binding to TGE RNA, dose response, biochemical, fluorescence polarization, C. elegans (AID 2802);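 further: fluorescence polarization of labeled TGE RNA bound by purified gld-1 protein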
[5] = target: T5, Zinc finger protein mex-5 (Caenorhabditis elegans, UniProt Q9XUB2); test: MEX-5/TCR-2 RNA interaction inhibitors, dose response, biochemical, C. elegans, fluorescence polarization (AID 1960)
T5 sequence (Q9XUB2 whole entry): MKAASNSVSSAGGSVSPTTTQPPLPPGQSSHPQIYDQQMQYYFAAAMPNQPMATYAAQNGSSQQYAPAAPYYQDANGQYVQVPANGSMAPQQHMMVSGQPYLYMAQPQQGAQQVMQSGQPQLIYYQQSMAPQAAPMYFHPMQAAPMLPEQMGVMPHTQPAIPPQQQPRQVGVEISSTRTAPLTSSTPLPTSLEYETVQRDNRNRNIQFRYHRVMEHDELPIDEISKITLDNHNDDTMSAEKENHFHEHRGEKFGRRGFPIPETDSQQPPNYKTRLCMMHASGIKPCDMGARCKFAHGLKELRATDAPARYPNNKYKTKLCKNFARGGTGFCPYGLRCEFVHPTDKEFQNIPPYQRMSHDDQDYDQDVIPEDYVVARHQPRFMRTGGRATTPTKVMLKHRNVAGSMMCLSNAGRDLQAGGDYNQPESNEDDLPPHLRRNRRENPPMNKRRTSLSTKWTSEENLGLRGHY

Hexokinase HKDC1 = target: T6, Hexokinase HKDC1 (Homo sapiens, UniProt Q2TB90); test: HKDC1 hexokinase inhibitors, dose response, biochemical, W721R variant (AID 504729); type: functional
T6 sequence (Q2TB90 whole entry): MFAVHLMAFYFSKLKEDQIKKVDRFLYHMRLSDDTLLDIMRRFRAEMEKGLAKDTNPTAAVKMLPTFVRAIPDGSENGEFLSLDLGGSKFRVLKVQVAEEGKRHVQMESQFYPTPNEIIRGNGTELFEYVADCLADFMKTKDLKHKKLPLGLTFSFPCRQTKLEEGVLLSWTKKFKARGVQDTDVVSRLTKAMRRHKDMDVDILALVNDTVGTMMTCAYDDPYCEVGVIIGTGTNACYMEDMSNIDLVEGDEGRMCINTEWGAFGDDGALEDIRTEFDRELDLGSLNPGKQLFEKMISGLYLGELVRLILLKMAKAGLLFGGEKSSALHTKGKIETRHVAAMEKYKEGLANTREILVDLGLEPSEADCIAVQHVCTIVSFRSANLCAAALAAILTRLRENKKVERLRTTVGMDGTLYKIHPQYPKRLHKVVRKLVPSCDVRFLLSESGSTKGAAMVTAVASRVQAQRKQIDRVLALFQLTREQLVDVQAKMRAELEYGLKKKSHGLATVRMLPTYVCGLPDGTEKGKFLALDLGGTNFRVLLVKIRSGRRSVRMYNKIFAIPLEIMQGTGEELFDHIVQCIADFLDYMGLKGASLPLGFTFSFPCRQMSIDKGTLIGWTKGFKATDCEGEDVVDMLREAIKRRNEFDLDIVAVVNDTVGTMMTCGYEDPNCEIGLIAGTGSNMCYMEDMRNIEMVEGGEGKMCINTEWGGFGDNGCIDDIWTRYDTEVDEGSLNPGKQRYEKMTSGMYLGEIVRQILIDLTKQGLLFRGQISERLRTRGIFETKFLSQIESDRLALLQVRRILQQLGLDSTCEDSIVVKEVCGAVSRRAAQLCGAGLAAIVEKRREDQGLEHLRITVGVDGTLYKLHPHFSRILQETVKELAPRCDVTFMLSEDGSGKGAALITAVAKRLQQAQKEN

Protein Rev = Protein Rev (Human immunodeficiency virus type 1 group M subtype B (isolate HXB2)(HIV-1), UniProt P04618); test: inhibitors of Rev binding to RRE RNA, dose response, biochemical, fluorescence polarization, HIV-1 (AID 434976); set-up: species or system Human immunodeficiency virus 1
INS1 = test: beta cell apoptosis inhibitors, cytokine rescue, dose response, luminescence, retest (AID 449756); type: functional, cell-based; settings: Rattus norvegicus;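 further: cell death triggered by IL-1 beta plus TNF-alpha plus IFN-gamma mixture; protective hits raise ATP signal compared with cytokine alone wells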
[6] = target: T7, Rac GTPase-activating protein 1 (Homo sapiens, UniProt Q9H0H5); test: MgcRacGAP GTPase-activating activity inhibitors, confirmation, biochemical, ADP Hunter fluorescence, primary and confirmatory (AID 624330); type: functional
T7 sequence (Q9H0H5 whole entry): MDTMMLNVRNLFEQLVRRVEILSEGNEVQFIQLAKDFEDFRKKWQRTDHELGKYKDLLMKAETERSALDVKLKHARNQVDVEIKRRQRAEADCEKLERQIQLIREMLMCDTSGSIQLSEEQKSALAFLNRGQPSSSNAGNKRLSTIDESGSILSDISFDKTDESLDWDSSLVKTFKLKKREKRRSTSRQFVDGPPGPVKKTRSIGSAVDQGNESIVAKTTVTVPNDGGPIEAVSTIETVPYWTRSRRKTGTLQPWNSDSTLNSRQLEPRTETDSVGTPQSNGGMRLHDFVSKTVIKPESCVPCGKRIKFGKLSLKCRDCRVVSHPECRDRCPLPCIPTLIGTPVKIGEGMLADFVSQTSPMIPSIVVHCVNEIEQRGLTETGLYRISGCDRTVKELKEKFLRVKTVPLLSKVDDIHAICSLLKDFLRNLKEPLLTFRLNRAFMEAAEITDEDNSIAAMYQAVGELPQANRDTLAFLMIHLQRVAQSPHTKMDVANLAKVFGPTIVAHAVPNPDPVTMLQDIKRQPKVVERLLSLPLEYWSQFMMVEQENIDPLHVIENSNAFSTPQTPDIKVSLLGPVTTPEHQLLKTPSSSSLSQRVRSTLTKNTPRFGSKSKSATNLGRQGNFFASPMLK

[7] = Luminescence Cell-Based Dose Confirmation HTS to Identify Inhibitors of Polyadenylation.; type: functional
[8] = polyadenylation inhibitors in yeast reporter, dose response, luminescence, S. cerevisiae SKY197-pL101 (AID 2525); type: functional, cell-based
HEK293 = test: inhibitors of LMP1-driven NF-kB reporter, dose response, cell-based, HEK293, luciferase, cherry-pick (AID 588343); type: functional; settings: Homo sapiens
[9] = target: T8, Eukaryotic translation initiation factor 2-alpha kinase 3 (Homo sapiens, UniProt Q9NZJ5); test: Dose response cell-based high-throughput screening assay to measure PERK inhibition. [Related pubchem assays: 1416 ]; type: functional
[10] = target: T8, Eukaryotic translation initiation factor 2-alpha kinase 3; test: Counterscreen assay for PERK inhibitors: Dose response cell-based high throughput screening assay to measure inhibition of PERK at 6 hours. [Related pubchem assays: 1522, 1416 ]; type: functional

T8 sequence (Q9NZJ5 whole entry): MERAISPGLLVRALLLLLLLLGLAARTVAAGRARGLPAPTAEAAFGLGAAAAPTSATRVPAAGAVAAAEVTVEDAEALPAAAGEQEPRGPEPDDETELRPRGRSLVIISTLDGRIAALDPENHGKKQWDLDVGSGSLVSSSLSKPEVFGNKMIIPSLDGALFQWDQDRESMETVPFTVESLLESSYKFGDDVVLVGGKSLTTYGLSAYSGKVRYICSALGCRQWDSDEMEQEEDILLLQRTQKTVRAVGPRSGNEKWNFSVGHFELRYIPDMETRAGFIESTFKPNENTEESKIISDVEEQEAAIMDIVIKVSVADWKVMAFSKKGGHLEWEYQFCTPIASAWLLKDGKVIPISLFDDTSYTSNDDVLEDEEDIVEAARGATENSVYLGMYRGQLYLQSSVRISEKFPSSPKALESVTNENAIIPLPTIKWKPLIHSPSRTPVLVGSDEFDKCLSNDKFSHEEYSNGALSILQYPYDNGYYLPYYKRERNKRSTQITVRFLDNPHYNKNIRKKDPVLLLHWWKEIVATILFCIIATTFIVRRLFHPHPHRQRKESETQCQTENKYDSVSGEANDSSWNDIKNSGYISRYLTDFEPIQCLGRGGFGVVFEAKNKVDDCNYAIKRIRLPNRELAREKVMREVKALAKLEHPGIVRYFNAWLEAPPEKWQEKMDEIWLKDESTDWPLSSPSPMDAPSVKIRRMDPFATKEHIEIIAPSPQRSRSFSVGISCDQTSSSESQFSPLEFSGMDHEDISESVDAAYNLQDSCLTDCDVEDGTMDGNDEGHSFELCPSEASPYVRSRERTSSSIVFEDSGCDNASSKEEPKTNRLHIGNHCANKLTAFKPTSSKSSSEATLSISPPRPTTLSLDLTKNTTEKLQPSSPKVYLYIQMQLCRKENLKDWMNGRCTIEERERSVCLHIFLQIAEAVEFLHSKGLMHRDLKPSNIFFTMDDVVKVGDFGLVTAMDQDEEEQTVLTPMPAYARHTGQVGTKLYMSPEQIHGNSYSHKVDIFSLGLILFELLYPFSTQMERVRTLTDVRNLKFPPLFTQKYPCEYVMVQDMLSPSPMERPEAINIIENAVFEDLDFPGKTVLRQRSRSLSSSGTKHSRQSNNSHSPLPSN
Chain of Cytochrome P450 2D6 (P10635 whole entry, the tested form may be a part): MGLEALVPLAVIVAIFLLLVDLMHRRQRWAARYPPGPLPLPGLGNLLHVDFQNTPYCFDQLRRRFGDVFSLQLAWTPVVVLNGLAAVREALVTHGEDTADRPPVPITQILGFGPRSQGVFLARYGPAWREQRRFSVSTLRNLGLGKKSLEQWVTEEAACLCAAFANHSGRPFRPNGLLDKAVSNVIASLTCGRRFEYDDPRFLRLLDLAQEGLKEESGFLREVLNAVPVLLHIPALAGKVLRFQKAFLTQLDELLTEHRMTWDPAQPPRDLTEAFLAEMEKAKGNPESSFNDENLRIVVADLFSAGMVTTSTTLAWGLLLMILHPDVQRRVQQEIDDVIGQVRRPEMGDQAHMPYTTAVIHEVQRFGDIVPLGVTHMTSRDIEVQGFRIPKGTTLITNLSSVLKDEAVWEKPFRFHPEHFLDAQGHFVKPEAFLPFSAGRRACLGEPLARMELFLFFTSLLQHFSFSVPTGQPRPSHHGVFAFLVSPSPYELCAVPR
Chain of Protein Rev (P04618 whole entry): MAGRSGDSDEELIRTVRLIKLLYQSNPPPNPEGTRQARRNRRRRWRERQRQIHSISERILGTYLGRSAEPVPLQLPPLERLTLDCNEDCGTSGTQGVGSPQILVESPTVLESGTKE
Chain of Female germline-specific tumor suppressor gld-1 (Q17339 whole entry): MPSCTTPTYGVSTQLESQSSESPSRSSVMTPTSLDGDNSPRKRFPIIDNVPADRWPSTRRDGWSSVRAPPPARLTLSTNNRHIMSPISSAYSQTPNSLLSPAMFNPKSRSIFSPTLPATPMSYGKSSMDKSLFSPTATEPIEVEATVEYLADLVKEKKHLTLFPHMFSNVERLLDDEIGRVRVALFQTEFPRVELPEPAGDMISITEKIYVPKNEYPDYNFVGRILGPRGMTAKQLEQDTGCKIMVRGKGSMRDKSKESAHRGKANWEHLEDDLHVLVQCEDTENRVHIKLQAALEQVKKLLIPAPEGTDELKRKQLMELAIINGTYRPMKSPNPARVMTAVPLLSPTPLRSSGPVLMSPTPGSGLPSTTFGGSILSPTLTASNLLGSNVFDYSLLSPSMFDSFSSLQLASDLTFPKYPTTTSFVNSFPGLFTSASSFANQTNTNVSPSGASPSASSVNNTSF
Chain of Lysosomal acid glucosylceramidase (P04062 whole entry): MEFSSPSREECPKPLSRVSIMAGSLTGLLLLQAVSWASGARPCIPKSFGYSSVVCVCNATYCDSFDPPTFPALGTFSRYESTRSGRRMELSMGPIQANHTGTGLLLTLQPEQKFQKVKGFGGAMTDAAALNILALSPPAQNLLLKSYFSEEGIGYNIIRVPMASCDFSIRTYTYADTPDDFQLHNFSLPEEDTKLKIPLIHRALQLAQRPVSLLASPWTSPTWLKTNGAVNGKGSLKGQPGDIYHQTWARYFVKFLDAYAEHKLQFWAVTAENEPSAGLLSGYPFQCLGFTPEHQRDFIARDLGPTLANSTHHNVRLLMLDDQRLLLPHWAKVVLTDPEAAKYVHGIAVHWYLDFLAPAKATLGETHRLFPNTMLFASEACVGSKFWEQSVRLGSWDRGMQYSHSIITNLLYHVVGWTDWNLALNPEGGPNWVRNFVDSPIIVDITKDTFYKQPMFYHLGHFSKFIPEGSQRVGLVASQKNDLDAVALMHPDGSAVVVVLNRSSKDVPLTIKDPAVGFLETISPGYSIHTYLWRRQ

CCN1CCN(CCCNC(=O)c2cc3cc4ccc(OC)cc4nc3o2)CC1
EC50 [1]: 15.9 µM (not active)
AC50 (Cytochrome P450 1A2): 31.6 µM (inconclusive)
IC50 (Aminopeptidase N): 107 µM (active)
AC50 [2]: 26.5 µM (active)
AC50 (Cytochrome P450 2D6): 1.41 µM (inconclusive)

COc1cc2c(cc1OC)-c1c(OC)c(OC)c(OC)c3ccnc(c13)C2=O [OXOPURPUREINE]
EC50 [3]: 28.6 µM (inconclusive)
IC50 [4]: 6.15 µM (active)
EC50 [5]: 4.83 µM (active)
IC50 (Hexokinase HKDC1): 12.1 µM (active)
IC50 (Protein Rev): > 75.4 µM (not active)
AC50 (INS1): 3.34 µM (active)

COc1cc(/C=C2\SC(=S)N(NC(=O)c3ccncc3)C2=O)ccc1O
IC50 [6]: 48.1 µM (active)
EC50 [7]: 7.59 µM (active)
EC50 [8]: 8.56 µM (active)
AC50 (HEK293): 222 µM (active)

O=C(O)c1ccc(-c2nc(-c3ccccc3)c(-c3cccs3)[nH]2)cc1
EC50 [9]: > 55.7 µM (not active)
EC50 [10]: > 55.7 µM (not active)
